According to paper PMC7273348, “Unraveling a Tangled Skein: Evolutionary Analysis of the Bacterial Gibberellin Biosynthetic Operon” (mSphere, 2020):

Target: T1, ReIDS2 (ReGGPS2) (Rhizobium etli, UniProt Q8KLD2)
T1 construct: gene RHE_PD00244; full-length ORF in pET101/D-TOPO, C-terminal 6xHis tag, E. coli BL21 Star
T1 sequence (Q8KLD2 1-309): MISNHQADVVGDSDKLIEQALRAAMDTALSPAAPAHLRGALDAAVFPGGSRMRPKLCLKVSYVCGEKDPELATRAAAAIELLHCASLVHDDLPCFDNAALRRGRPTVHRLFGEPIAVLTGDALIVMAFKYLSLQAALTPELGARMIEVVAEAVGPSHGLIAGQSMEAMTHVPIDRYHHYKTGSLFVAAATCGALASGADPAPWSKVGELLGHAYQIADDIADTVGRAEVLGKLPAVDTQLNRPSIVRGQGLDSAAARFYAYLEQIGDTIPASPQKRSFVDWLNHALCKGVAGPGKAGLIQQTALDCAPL
Assay: LC-MS/MS detection of GGPP product
Assay type: biochemical
Settings: 50 uM IPP + 50 uM DMAPP; MOPSO pH 7.2, 10 mM MgCl2; 30 C, 2 h; main product GGPP

CC(C)=CCOP(=O)(O)OP(=O)(O)O [DMAPP]
LC-MS/MS detection of GGPP product: produced GGPP as its major product from the universal isoprenoid precursors IPP and DMAPP
